The values that follow come from US20110319416A1, “Subunit Selective NMDA Receptor Antagonists For The Treatment Of Neurological Conditions” (EMORY UNIVERSITY, priority 2009, published 2011).

In assay [1] the target is GluR1 (Rattus norvegicus, UniProt P19490). As to the kind of experiment: Two electrode voltage clamp, Xenopus oocytes expressing GluR1. The format is cell-based. How it is done:
Quality of synthesized cRNA was assessed by gel electrophoresis, and quantity was estimated by spectroscopy and gel electrophoresis. Stage V and VI oocytes were surgically removed from the ovaries of large, well-fed and healthy Xenopus laevis anesthetized with 3-amino-benzoic acid ethyl ester (3 gm/l) as previously described. Clusters of isolated oocytes were incubated with 292 U/ml Worthington (Freehold, N.J.) type IV collagenase or 1.3 mg/ml collagenase (Life Technologies, Gaithersburg, MD; 17018-029) for 2 hr in Ca^2+-free solution comprised of (in mM) 115 NaCl, 2.5 KCl, and 10 HEPES, pH 7.5, with slow agitation to remove the follicular cell layer. Oocytes were then washed extensively in the same solution supplemented with 1.8 mM CaCl2 and maintained in Barth's solution comprised of (in mM): 88 NaCl, 1 KCl, 2.4 NaHCO3, 10 HEPES, 0.82 MgSO4, 0.33 Ca(NO3)2, and 0.91 CaCl2 and supplemented with 100 μg/m1 gentamycin, 10 μg/ml streptomycin, and 10 μg/ml penicillin. Oocytes were manually defolliculated and injected within 24 hrs of isolation with 3-5 ng of NR1 subunit cRNA and 7-10 ng of NR2 cRNA subunit in a 50 nl volume, or 5-10 ng of AMPA or kainate receptor cRNAs in a 50 nl volume, and incubated in Barth's solution at 18° C. for 1-7 d. Glass injection pipettes had tip sizes ranging from 10-20 microns, and were backfilled with mineral oil.
Two electrode voltage-clamp recordings were made 2-7 days post-injection as previously described. Oocytes were placed in a dual-track plexi-glass recording chamber with a single perfusion line that splits in a Y-configuration to perfuse two oocytes. Dual recordings were made at room temperature (23° C.) using two Warner OC725B two-electrode voltage clamp amplifiers, arranged as recommended by the manufacturer. Glass microelectrodes (1-10 Megaohms) were filled with 300 mM KCl (voltage electrode) or 3 M KCl (current electrode). The bath clamps communicated across silver chloride wires placed into each side of the recording chamber, both of which were assumed to be at a reference potential of 0 mV. Oocytes were perfused with a solution comprised of (in mM) 90 NaCl, 1 KCl, 10 HEPES, and 0.5 BaCl2; pH was adjusted by addition of 1-3 M NaOH of HC1 to 7.4. Oocytes were recorded under voltage clamp at −40 mV. […] In some experiments, 10 μM EDTA was obtained by adding a 1:1000 dilution of 10 mM EDTA, in order to chelate contaminant divalent ions such as Zn^2+. […] Concentration effect curves consisting of 4 to 8 concentrations were obtained in this manner. The baseline leak current at −40 mV was measured before and after recording, and the full recording linearly corrected for any change in leak current. […] Each experiment consisted of recordings from 3 to 10 oocytes obtained from a single frog. Results from multiple experiments were pooled, and the average percent responses at antagonist concentrations were fitted by the equation,
Percent Response=(100−minimum)/(1+([conc]/IC50)nH)+minimum
(In two-electrode clamp one electrode senses voltage and the other passes current.)

Assay [2] deals with NR1/NR2D (Rattus norvegicus, UniProt P35439+Q62645). The experiment in a line: Two electrode voltage clamp, Xenopus oocytes expressing recombinant NR1/NR2D. Format: cell-based. Conditions: logistic fit, minimum forced to 0; read-out: 2D IC50. In outline: (§1)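 Two-electrode voltage clamp at −40 mV, 23° C, in rat receptor cRNA-injected Xenopus oocytes recorded 2–7 days post-injection, perfused with Ba2+-containing solution at pH 7.4, sometimes with 10 μM EDTA.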
Sequence of NR1/NR2D (Rattus norvegicus, UniProt P35439+Q62645) (Q62645 28-1323, other chains not shown): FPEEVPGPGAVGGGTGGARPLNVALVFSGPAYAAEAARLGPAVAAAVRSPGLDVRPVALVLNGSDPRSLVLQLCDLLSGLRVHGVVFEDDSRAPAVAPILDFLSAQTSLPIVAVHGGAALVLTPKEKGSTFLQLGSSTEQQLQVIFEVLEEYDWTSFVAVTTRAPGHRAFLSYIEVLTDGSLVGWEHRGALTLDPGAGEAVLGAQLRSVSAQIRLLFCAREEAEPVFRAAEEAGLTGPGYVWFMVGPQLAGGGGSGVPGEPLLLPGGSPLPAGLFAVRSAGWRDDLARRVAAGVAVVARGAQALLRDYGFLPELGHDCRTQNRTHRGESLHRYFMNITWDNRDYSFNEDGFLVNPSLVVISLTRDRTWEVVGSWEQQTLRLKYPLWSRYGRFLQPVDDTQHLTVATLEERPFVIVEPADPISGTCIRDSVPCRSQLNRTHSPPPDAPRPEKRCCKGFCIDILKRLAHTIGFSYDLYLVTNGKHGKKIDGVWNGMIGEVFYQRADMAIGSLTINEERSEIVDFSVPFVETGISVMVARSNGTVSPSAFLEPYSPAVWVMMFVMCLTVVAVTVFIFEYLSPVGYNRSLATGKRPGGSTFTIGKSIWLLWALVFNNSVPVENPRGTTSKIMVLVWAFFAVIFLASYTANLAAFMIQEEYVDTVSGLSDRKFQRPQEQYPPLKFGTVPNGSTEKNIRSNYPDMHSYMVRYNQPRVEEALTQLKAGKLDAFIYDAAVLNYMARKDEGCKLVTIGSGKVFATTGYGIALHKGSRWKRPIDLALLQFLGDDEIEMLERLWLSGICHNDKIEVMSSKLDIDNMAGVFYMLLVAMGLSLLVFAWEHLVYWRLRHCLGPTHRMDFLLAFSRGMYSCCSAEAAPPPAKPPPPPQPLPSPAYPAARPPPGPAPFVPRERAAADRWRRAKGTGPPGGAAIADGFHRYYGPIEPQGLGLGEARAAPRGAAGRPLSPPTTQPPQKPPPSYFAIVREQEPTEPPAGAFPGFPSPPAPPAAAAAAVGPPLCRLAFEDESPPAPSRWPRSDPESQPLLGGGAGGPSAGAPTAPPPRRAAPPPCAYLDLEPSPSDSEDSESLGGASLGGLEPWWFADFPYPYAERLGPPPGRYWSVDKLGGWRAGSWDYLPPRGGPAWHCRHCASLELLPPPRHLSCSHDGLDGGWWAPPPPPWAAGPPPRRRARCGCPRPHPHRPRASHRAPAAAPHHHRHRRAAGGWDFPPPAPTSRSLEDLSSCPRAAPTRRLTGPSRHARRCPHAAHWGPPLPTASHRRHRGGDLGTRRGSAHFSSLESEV

Assay [3] has as its target NR1/NR2D (Rattus norvegicus, UniProt Q62645). The description is as above. Format: cell-based. In outline:
as §1

Assay [4] concerns the target homomeric GluR6 kainate receptor (Rattus norvegicus, UniProt P42260). The experiment in a line: Two electrode voltage clamp, Xenopus oocytes expressing homomeric GluR6. Format: cell-based. Conditions: in words. How it is done: Real time Ca^2+ signals were recorded in 96 well plates using FlexStation II multi-mode plate readers. […] Test compounds were added to each well together with agonist to yield a final well concentration of 10 μM test compound in 0.9% DMSO. Compounds that altered the response of any well compared to on-plate control wells beyond 2.5-fold of the standard deviation (calculated from all wells on the plate) or by more than 40% of the control response on a given plate were selected for secondary screening using two-electrode voltage-clamp recordings from Xenopus oocytes expressing recombinant NR1/NR2D receptors. To complete the secondary screen, we obtained selected compounds in powder form. […] We subsequently initiated novel synthesis on this class of compound.
Quality of synthesized cRNA was assessed by gel electrophoresis, and quantity was estimated by spectroscopy and gel electrophoresis. Stage V and VI oocytes were surgically removed from the ovaries of large, well-fed and healthy Xenopus laevis anesthetized with 3-amino-benzoic acid ethyl ester (3 gm/l) as previously described. […]
Two electrode voltage-clamp recordings were made 2-7 days post-injection as previously described. […] Oocytes were recorded under voltage clamp at −40 mV. […] The baseline leak current at −40 mV was measured before and after recording, and the full recording linearly corrected for any change in leak current. […]

Assay [5] deals with NR1/NR2C (Rattus norvegicus, UniProt P35439+Q00961). As to the kind of experiment: Two electrode voltage clamp, Xenopus oocytes expressing recombinant NR1/NR2C. Format: cell-based. Conditions: logistic fit, minimum forced to 0; read-out: 2C IC50. In a few lines:
as §1

In assay [6] the target is NR1/NR2C (Rattus norvegicus, UniProt Q00961). The description is as above. The format is cell-based. In outline: as §1
Sequence of NR1/NR2C (Rattus norvegicus, UniProt Q00961) (Q00961 20-1237, other chains not shown): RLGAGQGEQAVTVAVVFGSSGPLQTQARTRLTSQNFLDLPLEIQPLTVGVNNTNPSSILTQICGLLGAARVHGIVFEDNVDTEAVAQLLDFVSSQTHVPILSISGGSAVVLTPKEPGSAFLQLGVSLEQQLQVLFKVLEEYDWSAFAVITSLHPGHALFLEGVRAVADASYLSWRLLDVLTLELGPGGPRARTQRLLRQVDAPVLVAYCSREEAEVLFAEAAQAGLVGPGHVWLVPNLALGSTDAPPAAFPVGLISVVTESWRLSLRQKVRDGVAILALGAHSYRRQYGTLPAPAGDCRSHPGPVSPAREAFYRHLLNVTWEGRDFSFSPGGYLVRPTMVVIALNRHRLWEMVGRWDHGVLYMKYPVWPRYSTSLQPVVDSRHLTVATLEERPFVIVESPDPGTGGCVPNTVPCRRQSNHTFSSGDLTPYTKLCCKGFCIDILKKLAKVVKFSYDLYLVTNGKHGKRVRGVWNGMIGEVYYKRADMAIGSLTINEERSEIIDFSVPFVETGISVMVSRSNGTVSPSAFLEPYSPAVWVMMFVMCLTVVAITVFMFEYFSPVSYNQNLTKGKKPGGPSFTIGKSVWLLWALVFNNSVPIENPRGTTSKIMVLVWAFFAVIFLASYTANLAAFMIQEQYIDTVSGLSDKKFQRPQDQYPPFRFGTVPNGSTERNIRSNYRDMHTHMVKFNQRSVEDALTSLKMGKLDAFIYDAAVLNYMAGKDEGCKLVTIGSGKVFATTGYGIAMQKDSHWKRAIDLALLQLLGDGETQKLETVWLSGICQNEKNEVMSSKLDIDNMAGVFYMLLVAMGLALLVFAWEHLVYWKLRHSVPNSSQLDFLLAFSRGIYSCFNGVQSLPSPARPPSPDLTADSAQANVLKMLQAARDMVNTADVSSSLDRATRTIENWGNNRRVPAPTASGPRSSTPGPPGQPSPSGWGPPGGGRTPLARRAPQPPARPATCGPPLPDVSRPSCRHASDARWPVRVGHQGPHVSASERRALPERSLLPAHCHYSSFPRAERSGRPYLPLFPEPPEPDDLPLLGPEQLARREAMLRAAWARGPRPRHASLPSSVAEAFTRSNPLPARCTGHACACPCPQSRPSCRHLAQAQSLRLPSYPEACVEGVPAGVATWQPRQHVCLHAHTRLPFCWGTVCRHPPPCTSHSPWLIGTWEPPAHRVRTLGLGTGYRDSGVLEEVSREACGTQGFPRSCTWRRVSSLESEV
Assay [7] concerns the target NR1/NR2A (Rattus norvegicus, UniProt P35439+Q00959). The experiment in a line: Two electrode voltage clamp, Xenopus oocytes expressing recombinant NR1/NR2A. Format: cell-based. Conditions: logistic fit, minimum forced to 0; read-out: 2A IC50. In a few lines:
as §1

The target in assay [8] is NR1/NR2A (Rattus norvegicus, UniProt Q00959). The assay is described as above. Conditions: in words. The format is cell-based. In outline:
as §1

Assay [9] addresses NR1/NR2B (Rattus norvegicus, UniProt P35439+Q00960). The experiment in a line: Two electrode voltage clamp, Xenopus oocytes expressing recombinant NR1/NR2B. Conditions: logistic fit, minimum forced to 0; read-out: 2B IC50. Format: cell-based. In a few lines:
as §1

The target of assay [10] is NR1/NR2B (Rattus norvegicus, UniProt Q00960). The description is as above. Format: cell-based. In a few lines:
as §1

The target in assay [11] is T1, NR2A (Homo sapiens, UniProt Q05586+Q12879). Conditions: cited from earlier work.
In assay [12] the target is T2, NR2B (Homo sapiens, UniProt Q05586+Q13224).
T2 sequence (Q13224 27-1484, other chains not shown): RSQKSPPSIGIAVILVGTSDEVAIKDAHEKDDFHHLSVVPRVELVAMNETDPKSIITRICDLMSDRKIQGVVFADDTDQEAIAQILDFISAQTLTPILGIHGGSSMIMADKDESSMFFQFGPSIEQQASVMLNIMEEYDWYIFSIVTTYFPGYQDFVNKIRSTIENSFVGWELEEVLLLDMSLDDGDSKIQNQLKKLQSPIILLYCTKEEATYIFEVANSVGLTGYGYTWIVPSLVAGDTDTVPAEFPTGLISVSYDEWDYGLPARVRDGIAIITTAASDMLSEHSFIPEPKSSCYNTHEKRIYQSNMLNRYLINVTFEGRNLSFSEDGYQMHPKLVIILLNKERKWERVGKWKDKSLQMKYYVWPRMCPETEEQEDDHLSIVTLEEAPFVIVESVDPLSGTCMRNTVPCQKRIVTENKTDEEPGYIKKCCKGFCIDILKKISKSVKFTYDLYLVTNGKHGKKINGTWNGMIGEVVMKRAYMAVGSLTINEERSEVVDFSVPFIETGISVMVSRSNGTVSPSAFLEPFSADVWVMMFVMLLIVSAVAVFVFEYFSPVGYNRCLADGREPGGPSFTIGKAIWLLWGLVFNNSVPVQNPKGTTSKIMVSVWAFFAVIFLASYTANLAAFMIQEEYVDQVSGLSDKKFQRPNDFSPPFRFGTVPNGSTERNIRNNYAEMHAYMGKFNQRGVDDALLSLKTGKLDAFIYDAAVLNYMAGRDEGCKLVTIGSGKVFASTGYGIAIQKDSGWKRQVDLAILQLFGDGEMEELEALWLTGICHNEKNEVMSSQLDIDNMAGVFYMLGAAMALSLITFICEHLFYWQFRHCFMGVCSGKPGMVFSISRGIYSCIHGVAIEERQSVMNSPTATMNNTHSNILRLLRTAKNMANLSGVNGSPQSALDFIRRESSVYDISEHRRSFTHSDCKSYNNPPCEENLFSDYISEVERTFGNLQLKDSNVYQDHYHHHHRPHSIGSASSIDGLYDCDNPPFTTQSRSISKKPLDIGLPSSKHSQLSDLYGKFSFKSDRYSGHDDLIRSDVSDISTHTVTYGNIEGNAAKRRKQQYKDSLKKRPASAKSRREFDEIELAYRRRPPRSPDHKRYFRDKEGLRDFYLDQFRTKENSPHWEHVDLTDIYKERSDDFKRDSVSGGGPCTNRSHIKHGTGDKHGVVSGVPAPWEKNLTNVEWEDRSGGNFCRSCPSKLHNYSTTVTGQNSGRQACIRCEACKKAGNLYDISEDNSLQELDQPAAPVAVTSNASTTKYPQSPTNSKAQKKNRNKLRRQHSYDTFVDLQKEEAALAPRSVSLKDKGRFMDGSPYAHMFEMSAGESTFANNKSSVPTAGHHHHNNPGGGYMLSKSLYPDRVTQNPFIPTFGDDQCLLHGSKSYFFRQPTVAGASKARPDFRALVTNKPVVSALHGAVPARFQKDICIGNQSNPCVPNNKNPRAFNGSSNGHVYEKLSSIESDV
The target of assay [13] is T2, NR2B. Conditions: Kb determined by Schild analysis; read-out: 2B (μM) Kb; cited from earlier work.
Assay [14] deals with T3, NR2D (Homo sapiens, UniProt O15399+Q05586). Conditions: Ki estimated from equilibrium binding displacement IC50 at a single concentration; low affinity site; read-out: 2D (μM) Ki*; cited from earlier work.
For assay [15], the target named is T3, NR2D. The experiment in a line: Literature equilibrium binding displacement, NR2D (Table 1).
In assay [16] the target is NR2C (Homo sapiens, UniProt Q05586+Q14957). Conditions: Ki estimated from equilibrium binding displacement IC50 at a single concentration; low affinity site; read-out: 2C (μM) Ki*; cited from earlier work.
The target of assay [17] is T2, NR2B. As to the kind of experiment: Literature equilibrium binding displacement, NR2B (Table 1).
Assay [18] has as its target T2, NR2B. Conditions: Ki estimated from equilibrium binding displacement IC50 at a single concentration; low affinity site; read-out: 2B (μM) Ki*; cited from earlier work.
For assay [19], the target named is T1, NR2A. Conditions: Ki estimated from equilibrium binding displacement IC50 at a single concentration; low affinity site; read-out: 2A (μM) Ki*; cited from earlier work.
Where [20] appears, read: not surmounted by agonists at 500-fold of EC50.

Marks after values point to notes of the source that are not given here. Some results are limits rather than exact numbers.

Sequence of NR1/NR2D (Rattus norvegicus, UniProt Q62645) (Q62645 28-1323, other chains not shown): as the sequence (Q62645 28-1323, other chains not shown) above
Sequence of GluR1 (P19490 19-907): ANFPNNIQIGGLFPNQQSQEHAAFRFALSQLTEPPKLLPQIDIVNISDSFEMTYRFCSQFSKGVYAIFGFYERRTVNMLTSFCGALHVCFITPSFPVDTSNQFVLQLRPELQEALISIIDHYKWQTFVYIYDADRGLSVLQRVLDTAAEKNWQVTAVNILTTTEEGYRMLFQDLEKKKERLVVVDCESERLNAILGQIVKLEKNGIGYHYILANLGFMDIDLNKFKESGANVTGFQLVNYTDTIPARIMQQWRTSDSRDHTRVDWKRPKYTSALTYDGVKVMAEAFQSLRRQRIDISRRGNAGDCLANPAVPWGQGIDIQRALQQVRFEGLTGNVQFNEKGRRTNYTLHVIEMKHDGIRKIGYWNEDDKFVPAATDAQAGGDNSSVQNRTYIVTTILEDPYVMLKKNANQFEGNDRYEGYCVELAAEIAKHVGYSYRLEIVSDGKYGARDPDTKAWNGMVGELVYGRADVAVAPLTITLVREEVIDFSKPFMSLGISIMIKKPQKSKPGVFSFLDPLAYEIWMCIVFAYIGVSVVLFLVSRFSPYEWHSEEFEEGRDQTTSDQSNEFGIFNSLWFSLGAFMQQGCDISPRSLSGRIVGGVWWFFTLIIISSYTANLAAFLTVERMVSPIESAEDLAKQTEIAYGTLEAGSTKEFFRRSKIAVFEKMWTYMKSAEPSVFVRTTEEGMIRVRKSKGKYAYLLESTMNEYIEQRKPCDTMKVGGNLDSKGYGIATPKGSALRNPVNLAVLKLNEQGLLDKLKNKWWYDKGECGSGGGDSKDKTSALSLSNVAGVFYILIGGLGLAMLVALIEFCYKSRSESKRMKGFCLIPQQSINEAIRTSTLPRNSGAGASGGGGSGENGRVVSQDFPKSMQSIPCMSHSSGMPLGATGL
Sequence of NR1/NR2C (Rattus norvegicus, UniProt P35439+Q00961) (Q00961 20-1237, other chains not shown): as the sequence (Q00961 20-1237, other chains not shown) above

Turning to `CCN(CC)C(=S)Oc1ccc(C(=O)Nc2cccc3ccccc23)cc1` [compound 1063], the remaining activity at 100 µM in assay [1] (at 100 μM, read-out: GluR1 percent effect at the maximum tested concentration) stood at 105%. The “effect on recombinant AMPA receptors” value in [1] (in words) is given as “little effect”. Moreover, the IC50 worked out at 1 µM in [2], 2 µM in assay [5], 1370 µM in assay [7] and 1230 µM in [9]. Also, the “selectivity for NR1/NR2D compared to NR1/NR2A” value in assay [3] (fitted IC50 values) is > 500 fold. For the same compound, the “IC50 (half maximally inhibiting concentration), NR1/NR2D” value in [3] (in words) is on record as “low micromolar”. The “mode of block of NR1/NR2D receptors” value in assay [3] (setting [20]) was “non-competitive and voltage-independent blocker”. Further, the “maximum inhibition of NR1/NR2D receptor function” value in assay [3] (voltage clamp) stood at 85%. Moreover, the “effect on recombinant kainate receptors” value in assay [4] was “little effect”. Further, in assay [6] (in words), the “IC50 (half maximally inhibiting concentration), NR1/NR2C” value is listed as “low micromolar”. Moreover, the “mode of block of NR1/NR2C receptors” value in [6] (setting [20]) was “non-competitive and voltage-independent blocker”. The “maximum inhibition of NR1/NR2C receptor function” value in [6] (voltage clamp) is given as 85%. For the same compound, the “effect on NR2A-containing receptors” value in assay [8] is “little effect”. In assay [10] (in words), the “effect on NR2B-containing receptors” value is listed as “little effect”.

`C[C@H](N[C@@H](c1cccc2[nH]c(=O)c(=O)[nH]c12)P(=O)(O)O)c1ccc(Br)cc1` [NVP-AAM07]: the Kb is 15.2 µM in assay [11] (Kb determined by Schild analysis, read-out: 2A (μM) Kb) and 78 µM in assay [13]. Moreover, the “selectivity for NR2A over NR2B” value in assay [11] (Schild analysis (Kb)) is 5 fold. Also, the “2A/2B (ratio of Kb)” value in assay [12] was 0.2.

`O=C(O)CCC(=O)N1N=C(c2c(-c3ccccc3)c3cc(Cl)ccc3[nH]c2=O)CC1c1ccc(Br)cc1` (centres unmarked) [compound 1179]: the IC50 in [2] stood at 2 µM; in assay [5] it was 4 µM; in assay [6] (logistic fit, minimum forced to 0, read-out: 2C IC50) it was 4 µM; in assay [7], 123 µM; in assay [9], 22 µM; in [10] (logistic fit, minimum forced to 0, read-out: 2B IC50) it was 22 µM.

With `O=C(/C=C/c1c(C(=O)[O-])[nH]c2cc(Cl)cc(Cl)c12)Nc1ccccc1.[Na+]` [GV150, 526A], the potency estimated from few doses in assay [14] is 0.05 µM; in assay [16], 0.11 µM; in [18], 0.08 µM; in assay [19], 0.08 µM. For the same compound, the “2A/2D (ratio of Ki*)” value in assay [15] was 1.6*. Moreover, the “2A/2B (ratio of Ki*)” value in assay [17] was 1.0*.

A word on the IC50: it is the midpoint of a concentration-inhibition curve.
